These results are taken from PMC6131563, “Talaropeptides A-D: Structure and Biosynthesis of Extensively N-methylated Linear Peptides From an Australian Marine Tunicate-Derived Talaromyces sp” (Frontiers in Chemistry, 2018).

The subject of one experiment is SW620. Nature of the experiment: cells. Details: MTT assay of cancer cell growth inhibition, absorbance at 580 nm. The following applies: Homo sapiens, SW-620, 48 h. How it is done: (§1) Adherent cell SW620 (human colorectal carcinoma) and NCI-H460 (human lung carcinoma) cells were cultured in Roswell Park Memorial Institute (RPMI) 1640 medium. All cells were cultured as adherent mono-layers in flasks supplemented with 10% fetal bovine serum, L–glutamine (2 mM), penicillin (100 unit/mL), and streptomycin (100 μg/mL), in a humidified 37°C incubator supplied with 5% CO2. Briefly, cells were harvested with trypsin and dispensed into 96-well microtiter assay plates at 3,000 cells/well, after which they were incubated for 18 h at 37°C with 5% CO2 (to allow cells to attach as adherent mono-layers). Test compounds were dissolved in 20% DMSO in PBS (v/v) and aliquots (10 μL) applied to cells over a series of final concentrations ranging from 10 nM to 30 μM. After 48 h incubation at 37°C with 5% CO2 an aliquot (20 μL) of 3-(4,5-dimethylthiazol-2-yl)-2,5-diphenyltetrazolium bromide (MTT) in phosphate buffered saline (PBS, 5 mg/mL) was added to each well (final concentration 0.5 mg/mL), and microtiter plates were incubated for a further 4 h at 37°C with 5% CO2. After final incubation, the medium was aspirated and precipitated formazan crystals dissolved in DMSO (100 μL/well). The absorbance of each well was measured at 580 nm with a PowerWave XS Microplate Reader from Bio-Tek Instruments Inc. Where relevant, IC50 values were calculated using Prism 7.0, as the concentration of analyte required for 50% inhibition of cancer cell growth (compared to negative controls). Negative control was 1% aqueous DMSO, while positive control was doxorubicin (30 μM). All experiments were performed in duplicate.

A further experiment has as its system NCI-H460. Nature of the experiment: cells. Details: MTT assay of cancer cell growth inhibition, absorbance at 580 nm. Particulars: Homo sapiens, NCI-H460, 48 h. The method, then: as §1
Experiment [1] deals with Bacillus subtilis ATCC 6633. Format: cell-based. Particulars: ATCC 6633, 24 h.

Like-named read-outs stand apart in the source and are kept apart here. Where a SMILES comes first, the peptide text is derived from it. [ ]: non-standard residue; d: D form. NMeF = CN[C@@H](Cc1ccccc1)C(=O)O; NMeI = CC[C@H](C)[C@H](NC)C(=O)O; NMeV = CN[C@H](C(=O)O)C(C)C; NMeA = CN[C@@H](C)C(=O)O

With `CC[C@H](C)[C@@H](C(=O)N[C@@H](CC(C)C)C(=O)O)N(C)C(=O)[C@H](Cc1ccccc1)N(C)C(=O)[C@H](C(C)C)N(C)C(=O)[C@H](C(C)C)N(C)C(=O)[C@@H]1CCCN1C(=O)[C@H](C(C)C)N(C)C(=O)[C@@H](NC(=O)[C@@H](NC(=O)[C@H](C(C)C)N(C)C(=O)[C@H](C)NC)C(C)C)[C@@H](C)O` [compound 2, talaropeptide A] (H-[NMeA][NMeV]VT[NMeV]P[NMeV][NMeV][NMeF][NMeI]L-OH), the IC50 was > 30 µM in the experiment with SW620 (read-out: 2), > 30 µM in the experiment on NCI-H460 (read-out: 2) and 1.5 µM in experiment [1].

On to `CC[C@H](C)[C@@H](C(=O)N[C@@H](CC(C)C)C(=O)O)N(C)C(=O)[C@H](Cc1ccccc1)N(C)C(=O)[C@H](C(C)C)N(C)C(=O)[C@H](C(C)C)N(C)C(=O)[C@@H]1CCCN1C(=O)[C@H](C(C)C)N(C)C(=O)[C@@H](NC(=O)[C@@H](NC(=O)[C@@H](NC(=O)[C@H](C(C)C)N(C)C(=O)[C@H](C)NC)C(C)C)[C@@H](C)O)C(C)C` [compound 3, talaropeptide B] (H-[NMeA][NMeV]VTV[NMeV]P[NMeV][NMeV][NMeF][NMeI]L-OH), for which the IC50 in the experiment with SW620 (read-out: 3) is > 30 µM; with NCI-H460 (read-out: 3) it was > 30 µM; in experiment [1], 3.7 µM.

Consider `CC[C@H](C)[C@@H](C(=O)N[C@@H](CC(C)C)C(=O)O)N(C)C(=O)[C@H](Cc1ccccc1)N(C)C(=O)[C@H](C(C)C)N(C)C(=O)[C@H](C(C)C)N(C)C(=O)[C@@H]1CCCN1C(=O)[C@H](C(C)C)N(C)C(=O)[C@@H](NC(=O)[C@@H](NC(=O)[C@H](C(C)C)N(C)C(=O)[C@H](C)N(C)C(C)=O)C(C)C)[C@@H](C)O` [compound 4, talaropeptide C] (Ac-[NMeA][NMeV]VT[NMeV]P[NMeV][NMeV][NMeF][NMeI]L-OH), for which the IC50 in the experiment with SW620 (read-out: 4) and in the experiment with NCI-H460 (read-out: 4) was > 30 µM in each case.

On to `CC[C@H](C)[C@@H](C(=O)N[C@@H](CC(C)C)C(=O)O)N(C)C(=O)[C@H](Cc1ccccc1)N(C)C(=O)[C@H](C(C)C)N(C)C(=O)[C@H](C(C)C)N(C)C(=O)[C@@H]1CCCN1C(=O)[C@H](C(C)C)N(C)C(=O)[C@@H](NC(=O)[C@@H](NC(=O)[C@@H](NC(=O)[C@H](C(C)C)N(C)C(=O)[C@H](C)N(C)C(C)=O)C(C)C)[C@@H](C)O)C(C)C` [compound 5, talaropeptide D] (Ac-[NMeA][NMeV]VTV[NMeV]P[NMeV][NMeV][NMeF][NMeI]L-OH), for which the IC50 in the experiment on SW620 (read-out: 5) and with NCI-H460 (read-out: 5) was > 30 µM each time.
